Assay results reported in the NIST ThermoML archive (doi:10.1016/j.jct.2011.06.013).

Assays:
[1] = 101.33 kPa, Liquid; for viscosity: Falling or rolling sphere viscometry
[2] = xn = mol fraction of the nth substance listed; settings: 101 kPa, Liquid; for viscosity: Falling or rolling sphere viscometry

OCCOCCOCCO [triethylene glycol]
[1]
Settings	mass density [kg/m3]
293.15 K, Pycnometric method	1123.06
298.15 K, Buoyancy - hydrostatic balance	1119.75
312.96 K, Buoyancy - hydrostatic balance	1109.61
313.15 K, Pycnometric method	1109.47
314.15 K, Pycnometric method	1108.77
333.25 K, Pycnometric method	1094.96
334.85 K, Pycnometric method	1093.76
334.96 K, Buoyancy - hydrostatic balance	1093.69
349.25 K, Buoyancy - hydrostatic balance	1082.8
352.55 K, Pycnometric method	1080.21
352.85 K, Pycnometric method	1079.98
364.44 K, Buoyancy - hydrostatic balance	1070.74
367.25 K, Pycnometric method	1068.46
381.45 K, Pycnometric method	1056.66
411.65 K, Pycnometric method	1030.16
413.73 K, Buoyancy - hydrostatic balance	1028.27
433.75 K, Pycnometric method	1009.54
461.56 K, Pycnometric method	982.12
462.25 K, Buoyancy - hydrostatic balance	981.42
476.35 K, Pycnometric method	966.87

[1]
Settings	viscosity [mPa·s]
298.15 K	36.82
312.96 K	19.03
334.96 K	9.002
349.25 K	5.945
364.44 K	4.131
413.73 K	1.679
462.25 K	0.997

OCCOCCO [diethylene glycol] + OCCO
mass density [kg/m3], [2]
Settings	298.15 K	318.55 K	322.34 K	333.45 K	353.83 K	367.15 K	392.87 K	436.08 K	462.75 K
Buoyancy - hydrostatic balance, x2 = 0.5	1112.21	–	1097.38	–	1075.19	–	1043.14	1001.82	973.24
Pycnometric method, x1 = 0.5	1112.21	1099.83	–	1089.92	–	1064.82	–	–	–

[2], x1 = 0.5
Settings	viscosity [mPa·s]
298.15 K	21.12
322.34 K	8.316
353.83 K	3.488
392.87 K	1.641
436.08 K	0.885
462.75 K	0.671

OCCOCCO [diethylene glycol]
mass density [kg/m3], [1]
Settings	Buoyancy - hydrostatic balance	Pycnometric method
293.15 K	1117.04	1117.04
298.15 K	1114.02	–
312.6 K	1104.9	–
313.15 K	–	1104.54
314.15 K	–	1103.88
329.28 K	1093.62	–
333.25 K	–	1090.82
334.85 K	–	1089.68
344.99 K	1082.27	–
349.77 K	1078.67	–
352.55 K	–	1076.55
352.85 K	–	1076.32
366.77 K	1065.35	–
367.25 K	–	1064.96
381.65 K	–	1053.01
411.05 K	–	1026.74
413.65 K	1024.3	–
434.45 K	–	1004.06
464.05 K	973.11	–

[1]
Settings	viscosity [mPa·s]
293.15 K	36.52
298.15 K	28.36
312.6 K	15.25
329.28 K	8.458
344.99 K	5.34
349.77 K	4.809
366.77 K	3.231
413.65 K	1.409
464.05 K	0.789

OCCOCCOCCO [triethylene glycol] + OCCO
mass density [kg/m3], [2]
Settings	298.13 K	298.15 K	322.36 K	355.34 K	392.2 K	434.59 K	462.61 K
Buoyancy - hydrostatic balance, x2 = 0.5	1115.1	–	1101.75	1079	1047.37	1002.88	968.72
Pycnometric method, x1 = 0.5	–	1115.45	–	–	–	–	–

[2], x1 = 0.5
Settings	viscosity [mPa·s]
298.13 K	26.24
322.36 K	10.13
355.34 K	3.999
392.2 K	1.946
434.59 K	1.058
462.61 K	0.705

OCCO [1,2-ethanediol]
mass density [kg/m3], [1]
Settings	Buoyancy - hydrostatic balance	Pycnometric method
293.15 K	1113.58	1113.58
312.46 K	1100.88	–
314.45 K	–	1099.52
333.25 K	–	1086.3
333.55 K	–	1086.09
334.87 K	1085.13	–
349.24 K	1074.46	–
352.85 K	–	1071.71
353.65 K	–	1071.1
357.05 K	–	1068.48
365.7 K	1061.7	–
367.25 K	–	1060.47
380.82 K	1049.47	–
381.45 K	–	1048.95
395.55 K	1037.07	–
411.65 K	–	1023
421.7 K	1013.93	–
433.75 K	–	1002.77
461.55 K	–	975.83
464.4 K	972.98	–

[1]
Settings	viscosity [mPa·s]
293.15 K	21.1
312.46 K	9.925
334.87 K	4.949
349.24 K	3.517
365.7 K	2.39
380.82 K	1.815
395.55 K	1.419
421.7 K	0.96
464.4 K	0.652

OCCOCCOCCO [triethylene glycol] + OCCOCCO
mass density [kg/m3], [2]
Settings	298.15 K	322.43 K	355.15 K	391.02 K	432.13 K	473.1 K
Buoyancy - hydrostatic balance, x2 = 0.5	1116.28	1104.5	1083.98	1055.33	1014.59	965.58
Pycnometric method, x1 = 0.5	1115.61	–	–	–	–	–

[2], x1 = 0.5
Settings	viscosity [mPa·s]
298.15 K	32.4
322.43 K	11.71
355.15 K	4.468
391.02 K	2.179
432.13 K	1.172
473.1 K	0.716
